Patent US5883293A, “Conformationally constrained backbone cyclized peptide analogs” (Peptor Ltd., priority 1994, dated 1999)
Numbered stars: 1 amine (or outer) side, 2 acyl side, 3 side chain; on linkers, the order of the positions; unused ones are H or OH. Bridge positions count the residues as written; N and C are the ends. Square brackets hold non-standard residues; d marks the D form. Peptide text beside a SMILES is read from it. NGly(3-aminopropyl) = O=C(CN(CCCN[*:3])[*:1])[*:2]; N(2-Aminoethyl)Gly = O=C(CN(CCN[*:3])[*:1])[*:2]; N(CH2CH2CO)Gly = O=C(CN(CCC(=O)[*:3])[*:1])[*:2]; N(CH2CH2COOH)Gly = O=C(O)CCNCC(=O)O; Gly(N(CH2)3NH2) = NCCCNCC(=O)O

Columns and labels:
[1] = In vitro biostability in human serum (HPLC determination of peptide degradation); format: in vitro ADME; settings: 37° C., FIG. 1
Procedure: FIG. 1 is a graph showing in vitro biostability of somatostatin and three analogs thereof in human serum. The graph depicts the percentage of undegraded molecules for each of the compounds initially and after various periods of time.
Resistance to biodegradation of SST analogs
The in vitro biostability of a SST cyclic peptide analog, PTR 3002, was measured in human serum, and was compared to the same sequence in a non-cyclic peptide analog (PTR 3001), to octreotide (Sandostatin), and to native somatostatin (SRIF). […] The assay was based on HPLC determination of peptide degradation as a function of time at 37° C.

[2] = target: Somatostatin Receptor (SSTR) Subtype SSTR-5 (Homo sapiens, UniProt P35346); test: Inhibition of radioactive iodinated somatostatin (SRIF-14) binding, CHO cells expressing SSTR-5; settings: read-out: percent inhibition of SRIF-14 binding, SSTR-5; for inhibition at 1 µM: Conc. 10^-6 M; for inhibition at 0.1 µM: Conc. 10^-7 M; for inhibition at 0.01 µM: Conc. 10^-8 M
Somatostatin Receptor (SSTR) Subtype SSTR-5, sequence (P35346 whole entry): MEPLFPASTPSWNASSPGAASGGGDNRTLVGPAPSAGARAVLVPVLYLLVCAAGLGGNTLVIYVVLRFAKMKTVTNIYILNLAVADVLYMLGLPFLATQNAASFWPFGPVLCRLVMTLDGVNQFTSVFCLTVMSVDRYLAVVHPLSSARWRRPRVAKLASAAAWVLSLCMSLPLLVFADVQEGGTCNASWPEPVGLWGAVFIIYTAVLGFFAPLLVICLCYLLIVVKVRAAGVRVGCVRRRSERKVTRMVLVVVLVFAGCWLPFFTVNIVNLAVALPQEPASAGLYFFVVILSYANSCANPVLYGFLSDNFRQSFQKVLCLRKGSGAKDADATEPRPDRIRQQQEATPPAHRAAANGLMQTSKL
Text: (§1) Receptor binding specificity of cyclic peptide analogs
(§2) The values presented are percent inhibition of radioactive iodinated somatostatin (SRIF-14) binding.

[3] = tested on: Somatostatin Receptor (SSTR) Subtype SSTR-2B; test: Inhibition of radioactive iodinated somatostatin (SRIF-14) binding, CHO cells expressing SSTR-2B; settings: read-out: percent inhibition of SRIF-14 binding, SSTR-2B; for inhibition at 1 µM: Conc. 10^-6 M; for inhibition at 0.1 µM: Conc. 10^-7 M; for inhibition at 0.01 µM: Conc. 10^-8 M
Somatostatin Receptor (SSTR) Subtype SSTR-2B, sequence (P30874 1-356 isoform P30874-2): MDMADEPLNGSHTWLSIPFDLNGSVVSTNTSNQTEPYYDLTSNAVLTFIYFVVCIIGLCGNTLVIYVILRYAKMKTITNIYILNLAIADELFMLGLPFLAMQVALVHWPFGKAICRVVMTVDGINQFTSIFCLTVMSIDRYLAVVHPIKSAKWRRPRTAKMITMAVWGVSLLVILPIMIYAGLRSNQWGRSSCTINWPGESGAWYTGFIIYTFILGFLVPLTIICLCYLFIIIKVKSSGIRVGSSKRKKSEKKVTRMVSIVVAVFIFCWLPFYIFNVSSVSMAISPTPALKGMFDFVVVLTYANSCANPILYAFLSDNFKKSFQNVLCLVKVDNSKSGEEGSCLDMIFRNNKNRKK
Text: as §1, §2

[4] = Lack of toxicity of cyclized peptide analogs in rats; format: in vivo
Text: Lack of toxicity of cyclized peptide analogs
These two doses are several orders of magnitude higher than those needed to elicit the desired endocrine effect. The peptides dissolved in saline produced no untoward side effects on the central nervous system, cardiovascular system, body temperature, nor on the periphery of the animals.

[5] = target: T1, bradykinin receptors (PC 12 cells) (Rattus norvegicus, UniProt P25023); test: Bradykinin antagonist assay: (3H)dopamine release from PC 12 cells; format: cell-based; settings: at 10^-6 M; (3H)DA release stimulated by bradykinin, PC12 cells
T1 construct: PC 12 cells that express bradykinin receptors; endogenous in cells; host or cells: PC12 cells
T1 sequence (P25023 1-396): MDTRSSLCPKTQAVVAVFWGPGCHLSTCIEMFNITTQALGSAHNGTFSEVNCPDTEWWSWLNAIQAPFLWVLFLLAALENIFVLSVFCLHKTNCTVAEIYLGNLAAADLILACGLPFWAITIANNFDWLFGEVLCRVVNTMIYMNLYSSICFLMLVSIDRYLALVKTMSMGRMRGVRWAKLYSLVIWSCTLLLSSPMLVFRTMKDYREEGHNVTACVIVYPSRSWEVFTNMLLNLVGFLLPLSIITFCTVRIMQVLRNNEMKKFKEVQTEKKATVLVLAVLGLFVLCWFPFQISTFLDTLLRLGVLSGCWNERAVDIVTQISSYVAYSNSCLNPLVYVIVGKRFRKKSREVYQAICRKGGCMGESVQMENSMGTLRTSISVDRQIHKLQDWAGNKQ
Procedure: BRADYKININ ANTAGONIST ASSAY (Displacement of (^3 H)dopamine release from PC 12 cells)
Novel backbone cyclized peptide analogs of the present invention were assayed in vitro for bradykinin antagonist activity by protection of (^3 H)dopamine release from PC 12 cells that express bradykinin receptors. PC12 cells were grown in Dulbecco Modified Eagle's medium with high glucose, supplemented with 10% horse serum, 5% fetal calf serum, 130 units/ml penicillin and 0.1 mg/ml streptomycin. For experiments, cells were removed from the medium using 1 mmole EDTA and replated on collagen coated-12-well plates and assayed 24 hr later. Release of (^3 H)dopamine was determined as follows: cells were incubated for 1.5 hr at 37° C. with 0.5 ml of growth medium and […] (^3 H)DA (41 Ci/mmole) and […] pargyline followed by extensive washing with medium (3×1 ml) and release buffer consisting of (mM): 130 NaCl; 5 KCl; 25 NaHCO3; 1 NaH2 PO4; 10 glucose and 1.8 CaCl2. In a typical experiment, cells were incubated with 0.5 ml buffer for 5 consecutive incubation periods of 3 min each at 37° C. Spontaneous (^3 H)DA release was measured by collecting the medium released by the cells successively for the first 3 min period. Antagonists were added to the cells 3 min prior to stimulation (at the second period), and stimulation of (^3 H)DA release by 100 nmole of bradykinin are monitored during the 3 period by 60 mmole KCl. The remaining of the (^3 H)DA was extracted from the cells by over night incubation with 0.5 ml 0.1N HCl. (^3 H)DA release during each 3 min period was expressed as a % of the total (^3 H)DA content of the cells. Net evoked release was calculated from (^3 H)DA release during stimulation period after subtracting basal (^3 H)DA release in the preceding baseline period if not indicated otherwise.

[6] = target: T2, BK2 receptors (Cavia porcellus, UniProt O70526); test: Bradykinin antagonist assay: guinea-pig ileum contraction; settings: at 10^-6 M, BK 2×10^-8 M, atropine 1 μM present
T2 construct: This tissue contains predominantly BK2 receptors; from tissue; host or cells: guinea-pig ileum, longitudinal muscle layer with adhering mesenteric plexus
T2 sequence (O70526 1-372): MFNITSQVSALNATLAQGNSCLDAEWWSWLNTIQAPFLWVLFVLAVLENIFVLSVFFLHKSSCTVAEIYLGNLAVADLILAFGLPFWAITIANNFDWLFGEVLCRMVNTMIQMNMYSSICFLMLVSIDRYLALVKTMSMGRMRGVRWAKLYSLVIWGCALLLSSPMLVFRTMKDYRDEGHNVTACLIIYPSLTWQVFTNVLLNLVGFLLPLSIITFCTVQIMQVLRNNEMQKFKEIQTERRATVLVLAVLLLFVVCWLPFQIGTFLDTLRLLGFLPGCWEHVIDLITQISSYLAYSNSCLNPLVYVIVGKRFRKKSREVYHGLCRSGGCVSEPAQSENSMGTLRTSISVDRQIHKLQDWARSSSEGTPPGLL
Procedure: The ileum of the guinea-pig was selected as the preparation for the bioassay. This tissue contains predominantly BK2 receptors. The preparation consists of the longitudinal muscle layer with the adhering mesenteric plexus. The isolated preparation was kept in Krebs solution and contractions were measured with an isometric force transducer. […] Atropine (1 μM) was always present.

C[C@@H](O)[C@H](NC(=O)CN1CCNC(=O)CCN(C(=O)[C@H](N)Cc2ccccc2)CC(=O)N[C@@H](Cc2ccccc2)C(=O)N[C@H](Cc2c[nH]c3ccccc23)C(=O)N[C@@H](CCCCN)C(=O)N[C@@H]([C@@H](C)O)C1=O)C(N)=O [PTR 3002] (H-[dF][N(CH2CH2CO)Gly]F[dW]KT[N(2-Aminoethyl)Gly]T-NH2; lactam 2-7)
in vitro biostability in human serum [1]: as stable as octreotide, is more stable than the corresponding non-cyclic structure, and is much more stable than SRIF

C[C@@H](O)[C@H](NC(=O)CN(CCCN)C(=O)[C@@H](NC(=O)[C@H](CCCCN)NC(=O)[C@@H](Cc1c[nH]c2ccccc12)NC(=O)[C@H](Cc1ccccc1)NC(=O)CN(CC(=O)O)C(=O)[C@H](N)Cc1ccccc1)[C@@H](C)O)C(N)=O [PTR 3005]
inhibition at 1 µM [2]: 9% | inhibition at 0.1 µM [2]: 0% | inhibition at 0.01 µM [2]: 0% | inhibition at 1 µM [3]: 0% | inhibition at 0.1 µM [3]: 0% | inhibition at 0.01 µM [3]: 0%

C[C@@H](O)[C@H](NC(=O)CN1CCCNC(=O)CCN(C(=O)[C@H](N)Cc2ccccc2)CC(=O)N[C@@H](Cc2ccccc2)C(=O)N[C@H](Cc2c[nH]c3ccccc23)C(=O)N[C@@H](CCCCN)C(=O)N[C@@H]([C@@H](C)O)C1=O)C(N)=O [PTR 3007] (H-[dF][N(CH2CH2CO)Gly]F[dW]KT[NGly(3-aminopropyl)]T-NH2; lactam 2-7)
respiratory disturbances, stereotyped behavior, muscle tone ([4]; rats observed for 4 hours post administration): no respiratory disturbances | tolerability after single intraperitoneal application ([4]; rats, dose of 1.5 mg/kg): well tolerated

C[C@@H](O)[C@H](NC(=O)CN(CCCN)C(=O)[C@@H](NC(=O)[C@H](CCCCN)NC(=O)[C@@H](Cc1c[nH]c2ccccc12)NC(=O)[C@H](Cc1ccccc1)NC(=O)CN(CCC(=O)O)C(=O)[C@H](N)Cc1ccccc1)[C@@H](C)O)C(N)=O [PTR 3008] (H-[dF][N(CH2CH2COOH)Gly]F[dW]KT[Gly(N(CH2)3NH2)]T-NH2)
inhibition at 1 µM [2]: 15% | inhibition at 0.1 µM [2]: 6% | inhibition at 0.01 µM [2]: 0% | inhibition at 1 µM [3]: 0% | inhibition at 0.1 µM [3]: 0% | inhibition at 0.01 µM [3]: 0%

Ada-(D)Arg-Arg-cyclo(N^α (1-(6-aminohexylene)Gly-Hyp-Phe-D-Asp)-D-Phe-Phe-Arg--OH [Example 1]
inhibition of BK activity [5]: 30%

Ada-D-Arg-Arg-N^α (6-acetamidohexylene)Gly-Hyp-Phe-D-Asp(NH-Me)-D-Phe-Phe-Arg--OH [Example 2]
inhibition of BK activity [6]: 0% | inhibition of BK activity [5]: 0%

H-D-Arg-Arg-cyclo(N^α (4-propanoyl)Gly-Hyp-Phe-N^α (3-amido-propyl)-S-Phe)-Ser-D-Phe-Phe-Arg--OH [Example 4]
inhibition of BK activity [5]: 17%
